Compound: C1=CC2=NC=CN=C2C=C1/C=C/3\C(=O)NC(=O)S3 + Cc1nc(Nc2ncc(C(=O)Nc3c(C)cccc3Cl)s2)cc(N2CCN(CCO)CC2)n1 [Dasatinib] (partner 0.075 µM)
Experiment: relative viability (nuclei count vs DMSO), 5 days (fraction); higher = more cells survive
Conditions: first compound 0.2 µM
Summary of the method: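 Dosing by pin tool came one day after lung cancer cell lines were seeded in 1536-well plates, using either one drug or a fixed anchor-drug dose plus five library-drug doses (not always all listed) in √10 steps. After 5 days, nuclei were counted on 4× images. Relative viability is treated-well nuclei count divided by vehicle-well nuclei count, and values are medians of duplicate plates.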

Cell Line | relative viability
LXF-289 | 0.254
NCI-H23 | 0.715
NCI-H647 | 0.256
CAL-12T | 0.439
NCI-H1651 | 0.461
EPLC-272H | 0.421
NCI-H2228 | 0.47
NCI-H1355 | 0.709
NCI-H3122 | 0.747
NCI-H1437 | 0.406
NCI-H1755 | 0.448
NCI-H2023 | 0.582
HCC-15 | 0.687
NCI-H1793 | 0.368
PC-14 | 0.301
EKVX | 0.701
LC-2-ad | 0.746

Same assay, conditions: first compound 0.6325 µM

Cell Line | relative viability
HARA | 0.243
NCI-H322M | 0.239
LCLC-97TM1 | 0.8
NCI-H2009 | 0.272
A-427 | 0.659
NCI-H441 | 0.573
NCI-H661 | 0.748
NCI-H1734 | 0.41
NCI-H460 | 0.362
NCI-H2347 | 0.304
SK-LU-1 | 0.19
NCI-H1395 | 0.417
201T | 0.556
NCI-H1915 | 0.297
HCC-827 | 0.301
LXF-289 | 0.215

Cell Line | relative viability
NCI-H23 | 0.754
NCI-H647 | 0.149
CAL-12T | 0.304
NCI-H1651 | 0.311
EPLC-272H | 0.294
NCI-H2228 | 0.389
NCI-H1355 | 0.714
NCI-H3122 | 0.816
NCI-H1437 | 0.353
NCI-H1755 | 0.355
NCI-H2023 | 0.446
HCC-15 | 0.55
NCI-H1793 | 0.354
PC-14 | 0.265
EKVX | 0.524
LC-2-ad | 0.622

Same assay, conditions: first compound 2 µM

Cell Line | relative viability
HARA | 0.194
NCI-H322M | 0.238
LCLC-97TM1 | 0.306
NCI-H2009 | 0.175
A-427 | 0.541
NCI-H441 | 0.281
NCI-H661 | 0.722
NCI-H1734 | 0.269
NCI-H460 | 0.0894
NCI-H2347 | 0.293
SK-LU-1 | 0.0971
NCI-H1395 | 0.354
201T | 0.28
NCI-H1915 | 0.282
HCC-827 | 0.266
LXF-289 | 0.0852

Cell Line | relative viability
NCI-H23 | 0.29
NCI-H647 | 0.103
CAL-12T | 0.139
NCI-H1651 | 0.21
EPLC-272H | 0.153
NCI-H2228 | 0.388
NCI-H1355 | 0.47
NCI-H3122 | 0.701
NCI-H1437 | 0.174
NCI-H1755 | 0.257
NCI-H2023 | 0.246
HCC-15 | 0.42
NCI-H1793 | 0.328
PC-14 | 0.238
EKVX | 0.427

From the supplement of paper PMC10307832
